Test results taken from US20120309622A1, “HERBICIDES CONTAINING SUBSTITUTED THIEN-3-YL-SULPHONYLAMINIO(THIO)CARBONYL-TRIAZOLIN(ETHI)ONES” (BAYER INTELLECTUAL PROPERTY GMBH, priority 2001, published 2012).
“And” between values parts separate entries of the source, which are not always exact repeats. Equal values may be shown once. Read-outs that look alike come from different tables or passages of the source.

Legend:
Type in all cases: in vivo
Ipomoea hederacea = assay: Post-emergence test/greenhouse, % damage after three weeks
Excerpt: (§1) The expected action for a given combination of two herbicides can be calculated as follows (cf. COLBY, S. R.: “Calculating synergistic and antagonistic responses of herbicide combinations”, Weeds 15, pages 20-22, 1967):
(§2) If • X=% damage by herbicide A (active compound of the formula I) at an application rate of p kg/ha and • Y=% damage by herbicide B (active compound of the formula II) at an application rate of q kg/ha and • E=the expected damage of herbicides A+B at an application rate of p+q kg/ha, then
(§3) If the actual damage exceeds the calculated value, the combination has a superadditive effect, that is to say a synergistic effect.
(§4) Test plants are grown under control conditions (temperature and light). Once the plants have reached a height of 5 to 15 cm, the test compound or the combination of test compounds is applied by spraying such that the particular amounts of active compound desired are applied per unit area. The concentration of the spray liquor is chosen so that the particular amounts of active compound desired are applied in 500 litres of water/ha.
(§5) Following the spray application, the plant containers are kept in the greenhouse under constant light and temperature conditions.
(§6) After three weeks, the degree of damage to the plants is rated in % damage in comparison to the development of the untreated control.
(§7) The figures denote: • 0%=no effect (like untreated control) • 100%=total destruction

Cyperus esculentus = assay: as above
Excerpt: as §1, §2, §3, §4, §5, §6, §7

Setaria viridis = assay: as above; settings: for Setria viridis observed: post-emergence
Excerpt: as §1, §2, §3, §4, §5, §6, §7

Chenopodium album = assay: as above
Excerpt: as §1, §2, §3, §4, §5, §6, §7

Abutilon theophrasti = assay: as above
Excerpt: as §1, §2, §3, §4, §5, §6, §7

Viola arvensis = assay: as above
Excerpt: as §1, §2, §3, §4, §5, §6, §7

Avena fatua = assay: as above
Excerpt: as §1, §2, §3, §4, §5, §6, §7

Digitaria sanguinalis = assay: as above
Excerpt: as §1, §2, §3, §4, §5, §6, §7

Xanthium strumarium = assay: as above
Excerpt: as §1, §2, §3, §4, §5, §6, §7

Alopecurus myosuroides = assay: as above
Excerpt: as §1, §2, §3, §4, §5, §6, §7

Matricaria inodora = assay: as above
Excerpt: as §1, §2, §3, §4, §5, §6, §7

Bromus secalinus = assay: as above; settings: Bromus secalinus, post-emergence, 504 h, read-out: Bromus secalinus observed
Description: as §1, §3
(§8) Test plants are grown under control conditions (temperature and light).
as §5, §6

Veronica persicaria = assay: as above
Description: as §1, §3, §8, §5, §6

Cassia tora = assay: as above
Description: as §1, §3, §8, §5, §6

Polygonum convolvolus = assay: as above
Galium aparine = assay: as above; settings: 4 g of ai/ha
test plants = assay: Post-emergence test/greenhouse, % damage after three weeks (further test plants, Tables A-1-30 to A-1-104)
Excerpt: as §1, §2, §3, §4, §5, §6, §7

Lolium perenne = assay: Post-emergence test/greenhouse, % damage after three weeks
Eriochloa villosa = assay: as above

COC(=O)c1csc(C)c1S(=O)(=O)NC(=O)n1nc(OC)n(C)c1=O [I-2]
Ipomoea hederacea observed (Ipomoea hederacea; 2 g of ai/ha): 80% | Ipomoea hederacea observed (Ipomoea hederacea; 4 g of ai/ha): 80% | Ipomoea hederacea observed (Ipomoea hederacea; 8 g of ai/ha): 80% | Cyperus esculentus observed (Cyperus esculentus; 8 g of ai/ha): 80% and 70% | Cyperus esculentus observed (Cyperus esculentus; 15 g of ai/ha): 70% | Setaria viridis observed (Setaria viridis; 2 g of ai/ha): 90% | Setaria viridis observed (Setaria viridis; 4 g of ai/ha): 80% and 90% | Setaria viridis observed (Setaria viridis; 8 g of ai/ha): 90% and 95% | Setria viridis observed (Setaria viridis; application rate 2 g of ai/ha): 90% | Setria viridis observed (Setaria viridis; application rate 4 g of ai/ha): 90% | Chenopodium album observed (Chenopodium album; 4 g of ai/ha): 70% | Activity against Chenopodium album (%) (Chenopodium album; 8 g of a.i./ha): 70% | Chenopodium album observed (Chenopodium album; 8 g of ai/ha): 85% | Chenopodium album observed (Chenopodium album; application rate 2 g of ai/ha): 70% | Abutilon theophrasti observed (Abutilon theophrasti; 2 g of ai/ha): 60% | Abutilon theophrasti observed (Abutilon theophrasti; 4 g of ai/ha): 70% | Activity against Abutilon theophrasti (%) (Abutilon theophrasti; 8 g of a.i./ha): 70% | Viola arvensis observed (Viola arvensis; 4 g of ai/ha): 40% | Viola arvensis observed (Viola arvensis; 8 g of ai/ha): 50% | Avena fatua observed (Avena fatua; 2 g of ai/ha): 70% and 50% and 80% | Avena fatua observed (Avena fatua; 4 g of ai/ha): 80% and 70% and 90% | Avena fatua observed (Avena fatua; 8 g of ai/ha): 70% and 90% | Avena fatua observed (Avena fatua; 15 g of ai/ha): 70% | Digitaria sanguinalis observed (Digitaria sanguinalis; 4 g of ai/ha): 60% | Digitaria sanguinalis observed (Digitaria sanguinalis; 8 g of ai/ha): 80% and 90% | Xanthium strumarium observed (Xanthium strumarium; 4 g of ai/ha): 90% | Xanthium strumarium observed (Xanthium strumarium; 8 g of ai/ha): 70% | Alopecurus myosuroides observed (Alopecurus myosuroides; 2 g of ai/ha): 70% and 80% | Alopecurus myosuroides observed (Alopecurus myosuroides; 4 g of ai/ha): 70% and 80% | Alopecurus myosuroides observed (Alopecurus myosuroides; 8 g of ai/ha): 90% and 80% | Alopecurus myosuroides observed (Alopecurus myosuroides; 15 g of ai/ha): 90% and 80% | Matricaria inodora observed (Matricaria inodora; 2 g of ai/ha): 50% and 80% | Matricaria inodora observed (Matricaria inodora; 4 g of ai/ha): 70% | Matricaria inodora observed (Matricaria inodora; 15 g of ai/ha): 95% | pest or weed control at 2 g/ha (Bromus secalinus; 2 g of ai/ha): 70% | pest or weed control at 4 g/ha (Bromus secalinus; 4 g of ai/ha): 70% | pest or weed control at 8 g/ha (Bromus secalinus; 8 g of ai/ha): 80% | pest or weed control at 15 g/ha (Bromus secalinus; 15 g of ai/ha): 70% | pest or weed control at 8 g/ha (Bromus secalinus; application rate 8 g of ai/ha): 80% | Veronica persicaria observed (Veronica persicaria; 2 g of ai/ha): 0% | Veronica persicaria observed (Veronica persicaria; 15 g of ai/ha): 60% and 40% | Cassia tora observed (Cassia tora; 2 g of ai/ha): 20% | Cassia tora observed (Cassia tora; 4 g of ai/ha): 0% | Cassia tora observed (Cassia tora; 8 g of ai/ha): 0% | Polygonum convolvolus observed (Polygonum convolvolus; 2 g of ai/ha): 70% | Polygonum convolvolus observed (Polygonum convolvolus; 4 g of ai/ha): 70% and 80% | Galium aparine observed (Galium aparine): 80% | Polygonum convolvolus observed (test plants; application rate 2 g of ai/ha): 70% | Polygonum convolvolus observed (test plants; application rate 4 g of ai/ha): 80% | Polygonum convolvolus observed (test plants; application rate 8 g of ai/ha): 90% | Lolium perenne observed (Lolium perenne; 2 g of ai/ha): 70% and 80% | Lolium perenne observed (Lolium perenne; 4 g of ai/ha): 70% | Lolium perenne observed (Lolium perenne; 8 g of ai/ha): 90% | Eriochloa villosa observed (Eriochloa villosa; 4 g of ai/ha): 40% and 30% | Eriochloa villosa observed (Eriochloa villosa; 8 g of ai/ha): 70% and 60% and 90%
